The target of assay [1] is T1, Type-2 angiotensin II receptor (Homo sapiens, UniProt P50052). Note: in other assays of this panel Not Active means under 50% inhibition at 10 µM.
T1 sequence (P50052 whole entry): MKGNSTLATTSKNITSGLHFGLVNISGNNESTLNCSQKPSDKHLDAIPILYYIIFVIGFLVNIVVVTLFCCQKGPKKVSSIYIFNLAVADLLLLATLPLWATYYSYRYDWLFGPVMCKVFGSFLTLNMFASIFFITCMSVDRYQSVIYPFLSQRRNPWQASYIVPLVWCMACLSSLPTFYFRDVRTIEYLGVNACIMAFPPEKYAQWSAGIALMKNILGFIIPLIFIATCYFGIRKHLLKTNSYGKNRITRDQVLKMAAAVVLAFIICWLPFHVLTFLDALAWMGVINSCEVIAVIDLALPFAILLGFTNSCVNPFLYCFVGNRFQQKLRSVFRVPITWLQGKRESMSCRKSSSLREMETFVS
It counts as cell-based. To be noted: cho-k1.

The target in assay [2] is T2, Muscarinic acetylcholine receptor M2 (Homo sapiens, UniProt P08172). Note: in other assays of this panel Not Active means under 50% inhibition at 10 µM.
T2 sequence (P08172 whole entry): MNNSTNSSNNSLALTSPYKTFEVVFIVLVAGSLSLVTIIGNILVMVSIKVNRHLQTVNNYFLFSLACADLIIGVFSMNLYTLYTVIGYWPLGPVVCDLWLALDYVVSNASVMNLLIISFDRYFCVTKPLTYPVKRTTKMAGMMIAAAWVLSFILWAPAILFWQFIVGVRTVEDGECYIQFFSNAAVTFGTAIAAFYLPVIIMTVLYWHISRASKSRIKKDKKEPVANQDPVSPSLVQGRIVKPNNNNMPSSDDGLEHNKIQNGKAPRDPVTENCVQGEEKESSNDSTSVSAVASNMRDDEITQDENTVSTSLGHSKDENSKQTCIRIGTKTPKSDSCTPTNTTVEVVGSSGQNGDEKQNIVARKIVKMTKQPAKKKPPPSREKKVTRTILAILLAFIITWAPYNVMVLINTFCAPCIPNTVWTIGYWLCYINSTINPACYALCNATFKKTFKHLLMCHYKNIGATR
It counts as cell membranes, CHO-K1, Membrane. To be noted: cho-k1.

The target in assay [3] is T3, Alpha-1A adrenergic receptor (Rattus norvegicus, UniProt P43140).
T3 sequence (P43140 whole entry): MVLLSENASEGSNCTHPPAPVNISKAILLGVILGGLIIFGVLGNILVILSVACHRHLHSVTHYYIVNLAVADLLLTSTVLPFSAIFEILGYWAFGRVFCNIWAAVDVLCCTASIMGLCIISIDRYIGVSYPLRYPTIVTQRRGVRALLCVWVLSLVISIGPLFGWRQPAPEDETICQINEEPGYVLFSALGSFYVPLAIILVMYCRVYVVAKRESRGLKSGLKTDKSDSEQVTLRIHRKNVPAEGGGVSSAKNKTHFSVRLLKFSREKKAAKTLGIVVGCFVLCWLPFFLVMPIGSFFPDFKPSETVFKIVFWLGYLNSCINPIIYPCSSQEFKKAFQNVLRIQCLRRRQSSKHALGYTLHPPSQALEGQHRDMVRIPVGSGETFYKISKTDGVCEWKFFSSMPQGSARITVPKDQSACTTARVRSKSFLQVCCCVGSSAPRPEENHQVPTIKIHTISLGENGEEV
In words: DRUGMATRIX: Alpha-1A adrenergic receptor radioligand binding (ligand: prazosin). The following applies: Not Active = under 50% inhibition at 10 µM; for Ki: read-out: Ki. The class given is cell membranes, Wistar, Submaxillary gland, Membrane.

Assay [4] concerns the target 5-hydroxytryptamine receptor 1B (Rattus norvegicus, UniProt P28564). It counts as cell membranes, Wistar, Cerebral cortex, Membrane. The following applies: for Ki: read-out: Ki. For all read-outs here: in other assays of this panel Not Active means under 50% inhibition at 10 µM.
For assay [5], the target named is T4, 3-hydroxy-3-methylglutaryl-coenzyme A reductase (Homo sapiens, UniProt P04035).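 Note: enzyme inhibition assay of HMG-CoA reductase using radiolabeled [14C]HMG-CoA as substrate; in other assays of this panel Not Active means under 50% inhibition at 10 µM.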
T4 sequence (P04035 whole entry): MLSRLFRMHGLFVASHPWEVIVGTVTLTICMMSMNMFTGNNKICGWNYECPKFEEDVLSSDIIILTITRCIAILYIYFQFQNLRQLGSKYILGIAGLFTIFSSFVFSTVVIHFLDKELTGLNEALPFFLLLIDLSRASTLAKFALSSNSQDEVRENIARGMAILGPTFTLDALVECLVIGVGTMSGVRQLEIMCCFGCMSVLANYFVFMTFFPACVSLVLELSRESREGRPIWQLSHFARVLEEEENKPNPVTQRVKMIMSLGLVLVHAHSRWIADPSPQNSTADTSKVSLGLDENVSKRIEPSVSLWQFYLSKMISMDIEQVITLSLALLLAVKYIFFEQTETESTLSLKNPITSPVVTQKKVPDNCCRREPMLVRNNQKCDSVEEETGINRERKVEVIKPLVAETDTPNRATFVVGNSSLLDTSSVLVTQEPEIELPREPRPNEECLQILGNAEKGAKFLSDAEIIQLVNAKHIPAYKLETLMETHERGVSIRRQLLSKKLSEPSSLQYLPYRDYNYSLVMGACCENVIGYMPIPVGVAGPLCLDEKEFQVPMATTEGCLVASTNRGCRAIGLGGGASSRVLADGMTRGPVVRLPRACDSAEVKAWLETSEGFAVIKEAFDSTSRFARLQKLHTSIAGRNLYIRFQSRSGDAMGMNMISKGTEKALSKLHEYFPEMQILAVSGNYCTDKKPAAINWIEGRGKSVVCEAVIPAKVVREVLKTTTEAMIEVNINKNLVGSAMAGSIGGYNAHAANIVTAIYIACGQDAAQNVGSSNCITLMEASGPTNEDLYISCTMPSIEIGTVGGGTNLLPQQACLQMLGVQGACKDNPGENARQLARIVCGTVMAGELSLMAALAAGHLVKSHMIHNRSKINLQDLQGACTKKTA
The arrangement: species or system Escherichia coli.

Assay [6] addresses C-C chemokine receptor type 5 (Homo sapiens, UniProt P51681). It counts as cell membranes, HEK293, Membrane. The following applies: hek293.
Assay [7] addresses T5, Alpha-1B adrenergic receptor (Rattus norvegicus, UniProt P15823).
T5 sequence (P15823 whole entry): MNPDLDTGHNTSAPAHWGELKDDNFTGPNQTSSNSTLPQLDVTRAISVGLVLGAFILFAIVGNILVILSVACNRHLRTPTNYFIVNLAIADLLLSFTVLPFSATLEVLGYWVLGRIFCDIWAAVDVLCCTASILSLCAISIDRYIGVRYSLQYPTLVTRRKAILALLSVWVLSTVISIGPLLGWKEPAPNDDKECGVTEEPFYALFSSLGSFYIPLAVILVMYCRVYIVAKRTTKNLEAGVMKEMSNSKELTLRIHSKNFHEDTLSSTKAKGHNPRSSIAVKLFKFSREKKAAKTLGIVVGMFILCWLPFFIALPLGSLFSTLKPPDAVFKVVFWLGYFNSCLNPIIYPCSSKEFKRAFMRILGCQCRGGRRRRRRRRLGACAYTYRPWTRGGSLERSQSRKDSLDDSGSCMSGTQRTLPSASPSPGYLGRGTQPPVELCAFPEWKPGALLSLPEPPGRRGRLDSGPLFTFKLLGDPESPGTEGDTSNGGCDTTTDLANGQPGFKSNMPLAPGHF
In words: DRUGMATRIX: Alpha-1B adrenergic receptor radioligand binding (ligand: prazosin). The following applies: Not Active = under 50% inhibition at 10 µM; for Ki: read-out: Ki. It counts as cell membranes, Wistar, Liver, Membrane.

As a reminder, the IC50 is the point on the concentration scale where inhibition reaches its midpoint. As a reminder, the Ki is a dissociation constant, usually derived from enzyme kinetics or from competition with a known ligand.

Chain of 5-hydroxytryptamine receptor 1B (P28564 whole entry): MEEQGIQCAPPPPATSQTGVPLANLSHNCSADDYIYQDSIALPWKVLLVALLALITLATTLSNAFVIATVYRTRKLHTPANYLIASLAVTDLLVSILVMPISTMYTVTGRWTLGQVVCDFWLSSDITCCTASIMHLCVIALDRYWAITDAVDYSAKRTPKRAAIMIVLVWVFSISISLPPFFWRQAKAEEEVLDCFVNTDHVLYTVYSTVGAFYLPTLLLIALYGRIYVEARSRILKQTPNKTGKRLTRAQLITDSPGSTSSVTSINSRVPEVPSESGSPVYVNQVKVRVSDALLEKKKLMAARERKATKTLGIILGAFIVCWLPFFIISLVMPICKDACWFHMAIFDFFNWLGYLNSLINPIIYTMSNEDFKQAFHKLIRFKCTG
Chain of C-C chemokine receptor type 5 (P51681 whole entry): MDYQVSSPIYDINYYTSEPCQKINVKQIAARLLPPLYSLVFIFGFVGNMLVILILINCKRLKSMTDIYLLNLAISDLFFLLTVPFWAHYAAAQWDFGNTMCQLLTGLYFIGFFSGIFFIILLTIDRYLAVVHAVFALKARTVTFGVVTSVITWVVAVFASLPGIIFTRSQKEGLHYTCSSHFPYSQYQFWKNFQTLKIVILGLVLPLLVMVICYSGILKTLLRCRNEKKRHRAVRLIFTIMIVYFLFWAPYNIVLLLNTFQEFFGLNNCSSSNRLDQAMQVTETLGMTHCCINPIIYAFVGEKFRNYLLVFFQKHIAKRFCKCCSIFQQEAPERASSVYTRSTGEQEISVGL

Consider `CC1=C(CC(=O)O)c2cc(F)ccc2/C1=C\c1ccc([S+](C)[O-])cc1` (centres undefined), for which the IC50 entry in assay [1], in assay [2], in assay [3], in assay [4], in assay [5] and in assay [6] was “Not Active” in each case. In addition, the IC50 entry in assay [7] is recorded as “Not Active”.
Regarding `N[C@H](CSC(=S)NCc1ccccc1)C(=O)O`, the half-inhibitory concentration (IC50) entry in assay [1], in assay [2], in assay [3], in assay [4], in assay [5] and in assay [6] was “Not Active” throughout. Also, in assay [7], the IC50 entry is reported as “Not Active”.
Consider `CC(=O)N[C@@H]1[C@H](Oc2c3cc4cc2Oc2ccc(cc2Cl)[C@@H](O[C@@H]2O[C@@H](CO)[C@@H](O)[C@H](O)[C@@H]2NC(C)=O)[C@@H]2NC(=O)[C@H](NC(=O)[C@@H]4NC(=O)[C@H]4NC(=O)[C@@H](Cc5ccc(c(Cl)c5)O3)NC(=O)[C@H](N)c3ccc(O)c(c3)Oc3cc(O)cc4c3)c3ccc(O)c(c3)-c3c(O[C@H]4O[C@H](CO)[C@@H](O)[C@@H](O)[C@@H]4O)cc(O)cc3[C@@H](C(=O)O)NC2=O)O[C@@H](CO)[C@@H](O)[C@@H]1O`, for which the IC50 result in assay [1], in assay [2], in assay [3], in assay [4], in assay [5] and in assay [6] was “Not Active” in each case. Further, the half-maximal inhibitory concentration (IC50) entry in assay [7] was “Not Active”.
Consider `Clc1ccc2c(c1)C(N1CCNCC1)=Nc1ccccc1O2` [AMOXAPINE], for which the IC50 result in assay [1] is “Not Active”; in assay [3] (read-out: IC50), 357 nM; in assay [4] it was “Not Active”; in assay [5], “Not Active”; in assay [6], “Not Active”. Besides, the inhibition constant (Ki) in assay [3] stood at 144 nM.
As to `COc1cc2c(c(OC)c1OC)-c1ccc(OC)c(=O)cc1[C@@H](NC(C)=O)CC2` [COLCHICINE], the IC50 entry in assay [1], in assay [2], in assay [3], in assay [4], in assay [5] and in assay [6] was “Not Active” throughout.
`CN1CCC(=C2c3ccccc3C=Cc3ccccc32)CC1` [CYPROHEPTADINE]: the IC50 entry in assay [1] is “Not Active”; in assay [3] (read-out: IC50), 241 nM; in assay [4] (read-out: IC50) it was 2780 nM; in assay [5] it was “Not Active”; in assay [6] it was “Not Active”. The Ki stood at 98 nM in assay [3] and 1260 nM in assay [4].
Turning to `CC/C(=C(/CC)c1ccc(O)cc1)c1ccc(O)cc1` [DIETHYLSTILBESTROL], the IC50 result in assay [1] was “Not Active”; in assay [2], “Not Active”; in assay [3] (read-out: IC50), 19500 nM; in assay [4], “Not Active”; in assay [5], “Not Active”; in assay [6], “Not Active”. Moreover, the Ki in assay [3] came out at 7890 nM.
As for `CC(=O)N1CCN(c2ccc(OCC3COC(Cn4ccnc4)(c4ccc(Cl)cc4Cl)O3)cc2)CC1` (centres undefined) [KETOCONAZOLE], the half-maximal inhibitory concentration (IC50) result was “Not Active” in assay [1]; 35700 nM in assay [3] (read-out: IC50); 13500 nM in assay [4] (read-out: IC50); “Not Active” in assay [5]; “Not Active” in assay [6]; 22.9 µM in assay [7] (read-out: IC50). Also, the Ki was found to be 14500 nM in assay [3], 6150 nM in assay [4] and 12.7 µM in assay [7].
On to `C=CCN1CC[C@]23c4c5ccc(O)c4O[C@H]2C(=O)CC[C@@]3(O)[C@H]1C5` [NALOXONE], for which the IC50 entry in assay [1], in assay [2], in assay [3], in assay [4], in assay [5] and in assay [6] was “Not Active” each time.
On to `COCCOC(=O)C1=C(C)NC(C)=C(C(=O)OC(C)C)C1c1cccc([N+](=O)[O-])c1` (centres undefined) [NIMODIPINE], for which the half-inhibitory concentration (IC50) result in assay [1], in assay [2], in assay [3], in assay [4], in assay [5] and in assay [6] was “Not Active” each time. In addition, the IC50 entry in assay [7] is “Not Active”.
For the molecule `CC(C)NCC(O)COc1cccc2ccccc12` (centres undefined) [PROPRANOLOL], the half-inhibitory concentration (IC50) result in assay [1], in assay [2], in assay [3], in assay [4], in assay [5] and in assay [6] was “Not Active” each time.
For the molecule `COCCCOc1ccnc(C[S+]([O-])c2nc3ccccc3[nH]2)c1C` (centres undefined) [RABEPRAZOLE], the half-maximal inhibitory concentration (IC50) result in assay [1], in assay [2], in assay [3], in assay [4], in assay [5] and in assay [6] was “Not Active” throughout. Also, the IC50 result in assay [7] was “Not Active”.
With `O=C(c1ccc(OCCN2CCCCC2)cc1)c1c(-c2ccc(O)cc2)sc2cc(O)ccc12` [RALOXIFENE], the IC50 entry in assay [1] was “Not Active”; in assay [2] it was “Not Active”; in assay [3] (read-out: IC50) it was 2200 nM; in assay [4] (read-out: IC50) it was 1860 nM; in assay [5], “Not Active”; in assay [6], “Not Active”. The concentration for half-maximal inhibition (IC50) in assay [7] (read-out: IC50) amounted to 2.69 µM. Further, the Ki in assay [3] was found to be 892 nM; in assay [4], 846 nM; in assay [7], 1.49 µM.
Take `CNC(=C[N+](=O)[O-])NCCSCc1ccc(CN(C)C)o1` [RANITIDINE]: the IC50 result in assay [1], in assay [2], in assay [3], in assay [4], in assay [5] and in assay [6] was “Not Active” throughout. In addition, in assay [7], the IC50 entry was “Not Active”.

The record behind these values is ChEMBL document CHEMBL1909046, “DrugMatrix in vitro pharmacology data”.
